The values below come from patent US10213397B2, “Microtubule polymerization modulators for treating LMNA-related dilated cardiomyopathy” (priority 2016, dated 2019).

Each structure is given as a SMILES string. Entries after “also recorded” stand apart in the source; their conditions may differ.

The subject of data set [1] is patient diagnosed with LMNA-related DCM. Description: Treatment of patient diagnosed with LMNA-related dilated cardiomyopathy (case report). Type of data set: in vivo, human. The following applies: for patient's condition: carvedilol 25 mg twice daily with eplerenone 25 mg once daily, before colchicine. The source says: In August of 2013 patient […] was diagnosed with LMNA-related DCM, also known as “cardiac laminopathy,” an inherited degenerative cardiac disorder characterized by left ventricular dilation, arrhythmia, and cardiac enlargement. It is a subset of “non-ischemic cardiomyopathy.”
The patient worked as a college professor and the patient's condition worsened throughout the 2013-14 school year. The patient was heading toward long-term disability due to fatigue, shortness of breath and palpitations, all due to their progressive heart failure. In October, an implantable defibrillator was placed in the patient's chest, and the patient was hospitalized twice for cardiac arrhythmias (i.e., once for excessive premature ventricular contractions or TVCs′, and once for cardiac resynchronization for atrial fibrillation). Because conventional heart failure therapy appeared unsuccessful at ameliorating disease effects, the patient undertook a comprehensive review of literature on laminopathy to find a novel treatment.
In June 2014, the patient began experiencing PVC-burden cardiomyopathy, a secondary myopathy caused by a heavy premature ventricular contraction (PVC) load. Their PVCs were measured at 52,000 over a 48-hour holter-monitor. Given their deteriorating condition, now with NYHA class III heart failure, they sought care at Northwestern University's Bluhm Cardiovascular Institute in Chicago with Dr. Jane Wilcox.
Dr. Wilcox adjusted the patient's existing medication regimen to reflect best practice for treating dilated cardiomyopathy. The patient began taking 25 mg twice daily of carvedilol, as well as 25 mg once daily of eplerenone.
In January 2015, the patient underwent an unsuccessful procedure to ablate cardiac tissue causing their PVC burden. Their heart ejection fraction (EF), previously measured at 55%, was now measured at 45%. Later that month, the patient was hospitalized for Sotalol (antiarrhythmic drug) initiation. Sotalol was also unsuccessful in treating the patient's PVCs.
The patient had been very symptomatic with PVC's and could tell when his they were having PVC's.
Further, the patient was now considered to have NYHA class I heart failure symptoms and able to resume all previous activities, including running and biking, whereas previously the patient was NYHA class III (i.e., heart failure symptoms with mild activity).
As of July 2016, the patient stopped taking Sotalol because it seemed superfluous in respect to the patient's carvedilol regimen, and the patient has continued to be NYHA class I (i.e. asymptomatic).

Another data set relates to LMNA cells. To be noted: laboratory studies, reference 4 (Larrieu et al.); cited from earlier work.
Data set [2] concerns familial Mediterranean fever (FMF). The following applies: long-term use; reference 3; cited from earlier work.
The conditions of data set [3]: cited from earlier work.

Consider `CC(C)NCC(O)c1ccc(NS(C)(=O)=O)cc1` (stereo not drawn) [Sotalol], for which, in data set [1] (January 2015, before colchicine), the “treatment of the patient's PVCs” value is “unsuccessful”.
As for `COc1ccccc1OCCNCC(O)COc1cccc2[nH]c3ccccc3c12` (stereo not drawn) [carvedilol], the “patient's condition” value in data set [1] is listed as “continued to deteriorate”.
For the molecule `COc1cc2c(c(OC)c1OC)-c1ccc(OC)c(=O)cc1[C@@H](NC(C)=O)CC2` [colchicine], in data set [1] (1.8 mg colchicine twice daily (3.6 mg total dose), monitored for myelosuppression), the negative side effects entry is recorded as “no negative side effects; also recorded: has not experienced negative side effects”. Besides, the “NYHA class of heart failure symptoms” value in data set [1] (August 2015, previously NYHA class III) is “NYHA class I”. The “improvement in cardiac output, measured non-invasively using LVOT velocity time integral (VTI)” value in data set [1] (August 2015 echocardiogram, colchicine started early 2015) is given as 20%. Also, the “ventricular remodeling (left ventricular size and volume)” value in data set [1] (February 2016 echocardiogram) is reported as “positive ventricular remodeling”. Besides, in data set [1] (February 2016 echocardiogram, LVOT initially was 15), the “cardiac output (LVOT)” value stood at 22. This molecule registered an ejection fraction in data set [1] (February 2016 echocardiogram, improvement from 40-45%) of 55%. Moreover, the “NYHA class of heart failure symptoms” value in data set [1] (as of July 2016, after stopping eplerenone and Sotalol) was “NYHA class I”. Besides, the “general condition / overall health of the patient” value in data set [1] (on colchicine, at higher doses than typically used for gout) was “dramatic recovery; also recorded: continued to improve”. The PVC volume entry in data set [1] (within 48 hours of colchicine administration, patient with LMNA-related DCM) is given as “diminished considerably”. Besides, the “nuclear shape defects characteristic of LMNA cells” value in the data set with LMNA cells is reported as “rescue nuclear shape defects”. The “treatment of FMF (preventing attacks, reduction of symptoms, prevention and treatment of amyloidosis)” value in data set [2] is “very effective”. The “toxicity with P-gp or strong CYP3A4 inhibitors” value in data set [3] (patients with renal or hepatic impairment, colchicine taken in therapeutic doses) is “life-threatening and fatal colchicine toxicity”. In addition, in data set [3] (reported adverse reactions), the “frequency of agranulocytosis, thrombocytopenia, aplastic anemia, leukopenia, granulocytopenia, pancytopenia (hematologic, rare)” value was “less than 0.1%”; the “frequency of alopecia (dermatologic, rare)” value was “less than 0.1%”; the “frequency of azoospermia, oligospermia (genitourinary, rare)” value was “less than 0.1%”; the “frequency of myopathy, rhabdomyolysis, elevated CPK, myotonia, muscle weakness, muscle pain (musculoskeletal, rare)” value is given as “less than 0.1%”. The “frequency of pharyngolaryngeal pain (respiratory, common)” value in data set [3] (reported adverse reactions) is reported as 3%.
For the molecule `COC(=O)[C@@H]1CC2=CC(=O)CC[C@]2(C)[C@@]23O[C@@H]2C[C@@]2(C)[C@@H](CC[C@@]24CCC(=O)O4)[C@H]13` [eplerenone], the “reason for ceasing drug (potassium levels)” value in data set [1] (March 2016) was “elevated potassium levels”. Besides, the “patient's condition” value in data set [1] is reported as “continued to deteriorate”.
